Literature values, collected in patent US11484510B2, “Method to treat vitiligo” (APIRX PHAR[…], LLC, priority 2017, dated 2022).

Tests used:
[1] = test system: α2-adrenergic receptor
[2] = test system: 5-HT1A receptor
[3] = molecular target: CB1 receptor (Homo sapiens, UniProt P21554)
CB1 receptor, sequence (P21554 whole entry): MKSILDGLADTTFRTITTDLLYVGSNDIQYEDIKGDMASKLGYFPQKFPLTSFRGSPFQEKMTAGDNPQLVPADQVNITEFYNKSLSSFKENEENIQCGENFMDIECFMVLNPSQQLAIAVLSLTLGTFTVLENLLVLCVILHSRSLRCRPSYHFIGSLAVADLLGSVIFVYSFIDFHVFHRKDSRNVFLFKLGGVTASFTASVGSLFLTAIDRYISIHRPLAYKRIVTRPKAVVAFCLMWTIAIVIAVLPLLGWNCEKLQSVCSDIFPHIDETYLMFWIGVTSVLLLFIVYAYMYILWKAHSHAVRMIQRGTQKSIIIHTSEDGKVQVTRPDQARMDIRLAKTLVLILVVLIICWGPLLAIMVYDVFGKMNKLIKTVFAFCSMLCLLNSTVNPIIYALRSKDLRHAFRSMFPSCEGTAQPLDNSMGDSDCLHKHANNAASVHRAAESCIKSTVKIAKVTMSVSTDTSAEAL

Q: For CCCCCc1cc(O)c(C/C=C(\C)CCC=C(C)C)c(O)c1 [CBG, 2-[(2E)-3,7-dimethylocta-2,6-dienyl]-5-pentyl-benzene-1,3-diol], which “Affinity, α2-adrenergic receptor agonist” value [1] is on record?
A: high affinity

Q: And the “Affinity, 5-HT1A receptor antagonist” value [2]?
A: moderate affinity

Q: And the “Affinity, CB1 receptor antagonist” value [3]?
A: low affinity
